Molecular target: T1, enkephalinase preparation solubilized from rat kidneys (Rattus norvegicus, UniProt P07861)
T1 construct: enkephalinase preparation solubilized from rat kidneys; from tissue; host or cells: rat kidney
T1 sequence (P07861 1-750): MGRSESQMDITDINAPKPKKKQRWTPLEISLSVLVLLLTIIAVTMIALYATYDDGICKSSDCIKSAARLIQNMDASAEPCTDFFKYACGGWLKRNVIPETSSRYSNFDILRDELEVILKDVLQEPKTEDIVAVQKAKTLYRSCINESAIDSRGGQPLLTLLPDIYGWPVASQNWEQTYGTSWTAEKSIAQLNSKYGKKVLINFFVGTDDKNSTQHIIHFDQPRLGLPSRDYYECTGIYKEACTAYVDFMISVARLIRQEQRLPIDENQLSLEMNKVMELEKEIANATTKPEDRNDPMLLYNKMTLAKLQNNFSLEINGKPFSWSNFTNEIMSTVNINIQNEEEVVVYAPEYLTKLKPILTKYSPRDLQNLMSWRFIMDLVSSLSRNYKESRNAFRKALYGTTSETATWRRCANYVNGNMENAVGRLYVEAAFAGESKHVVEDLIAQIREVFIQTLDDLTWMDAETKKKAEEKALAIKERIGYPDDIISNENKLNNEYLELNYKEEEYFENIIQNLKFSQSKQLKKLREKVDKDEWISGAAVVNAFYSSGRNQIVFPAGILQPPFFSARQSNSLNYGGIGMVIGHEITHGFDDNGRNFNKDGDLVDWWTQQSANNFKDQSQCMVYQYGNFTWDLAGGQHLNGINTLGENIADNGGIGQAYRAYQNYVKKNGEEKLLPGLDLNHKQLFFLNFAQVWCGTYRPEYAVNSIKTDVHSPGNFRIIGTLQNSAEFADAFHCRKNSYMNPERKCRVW
Experiment: Enkephalinase assay (enkephalinase inhibition)
Assay type: biochemical
Settings: for IC50: inhibitor preincubated with the enzyme at room temperature for 60 minutes before addition of the substrate, read-out: IC50 (50% inhibition of enkephalinase); for enkephalinase-inhibitory activity of HPLC peaks: freeze-dried RP-18 HPLC fractions of crude enkastin complex from Streptomyces albus ATCC 21838
Method: The enzyme used was an enkephalinase preparation solubilized from rat kidneys by methods known per se [Mumford, R. A. et al. 1982, Biochem. Biophys. Res. Comm. 109, 1303-1309]. The 50% inhibition of enkephalinase by the compounds according to the invention, i.e. the IC50 value, was determined in a known manner using a concentration series, and the inhibitors, to which the invention relates, having been preincubated with the enzyme at room temperature for 60 minutes before the enzymatic reaction was started by addition of the substrate. Suitable checks for the non-inhibited reaction were carried out in the absence of an inhibitor.

Q: With CC(C)[C@@H](NCC(=O)[C@@H](O)[C@H](O)[C@H](O)CO)C(=O)N[C@@H](CC(=O)O)C(=O)O [compound 1, N-(1-deoxyfructos-1-yl)-D-Val-Asp] as the molecule, how does the IC50 read?
A: 1.3 nM

Q: How did the IC50 turn out when CC[C@@H](C)[C@@H](NCC(=O)[C@@H](O)[C@H](O)[C@H](O)CO)C(=O)N[C@@H](CC(=O)O)C(=O)O [compound 2, N-(1-deoxyfructos-1-yl)-D-Ile-Asp] was run?
A: 1.8 nM

Q: Which “enkephalinase-inhibitory activity of HPLC peaks” value does the source give for CC(C)[C@H](NCC(=O)[C@@H](O)[C@H](O)[C@H](O)CO)C(=O)N[C@@H](CC(=O)O)C(=O)O [compound 4, N-(1-deoxyfructos-1-yl)-Val-Asp] here?
A: enkephalinase-inhibitory activity

Q: What about the IC50 of the same molecule?
A: 6.3 nM

Q: How did the IC50 turn out when O=C(O)CC[C@H](NC(=O)[C@H](Cc1ccccc1)NCC(=O)[C@@H](O)[C@H](O)[C@H](O)CO)C(=O)O [compound 5, N-(1-deoxyfructos-1-yl)-Phe-Glu] was run?
A: 56 nM

Q: CC(C)[C@H](NCC(=O)[C@@H](O)[C@H](O)[C@H](O)CO)C(=O)N[C@@H](CCC(=O)O)C(=O)O [compound 6, N-(1-deoxyfructos-1-yl)-Val-Glu] was tested. Which “enkephalinase-inhibitory activity of HPLC peaks” value did it give?
A: enkephalinase-inhibitory activity

Q: And the IC50?
A: 34 nM

Q: CC[C@H](C)[C@H](NCC(=O)[C@@H](O)[C@H](O)[C@H](O)CO)C(=O)N[C@@H](CC(=O)O)C(=O)O [compound 7, N-(1-deoxyfructos-1-yl)-Ile-Asp] was tested. Which IC50 did it give?
A: 34 nM

Q: CC[C@H](C)[C@H](NCC(=O)[C@@H](O)[C@H](O)[C@H](O)CO)C(=O)N[C@@H](CCC(=O)O)C(=O)O [compound 8, N-(1-deoxyfructos-1-yl)-Ile-Glu] was tested. Which “enkephalinase-inhibitory activity of HPLC peaks” value did it give?
A: enkephalinase-inhibitory activity

Q: What about the IC50 of the same molecule?
A: 56 nM

Q: For CC[C@H](C)[C@H](NCC(=O)[C@@H](O)[C@H](O)[C@H](O)CO)C(=O)N[C@@H](CC(=O)OC(C)(C)C)C(=O)O [compound 9, N-(1-deoxyfructos-1-yl)-Ile-Asp(OtBu)], which IC50 is on record?
A: 70 nM

Q: CC[C@H](C)[C@H](NCC(=O)[C@@H](O)[C@H](O)[C@H](O)CO)C(=O)N[C@@H](CO)C(=O)O [compound 11, N-(1-deoxyfructos-1-yl)-Ile-Ser] was tested. Which IC50 did it give?
A: 210 nM

Q: CC(C)[C@@H](NCC(=O)[C@@H](O)[C@H](O)[C@H](O)CO)C(=O)O [compound 12, N-(1-deoxyfructos-1-yl)-D-Val] was tested. Which IC50 did it give?
A: 230 nM

Q: CC(C)[C@H](NCC(=O)[C@@H](O)[C@@H](O)[C@H](O)CO)C(=O)N[C@@H](CC(=O)O)C(=O)O [compound 13, N-(1-deoxytagatos-1-yl)-Val-Asp] was tested. Which IC50 did it give?
A: 320 nM

Q: For CC[C@@H](C)[C@@H](NCC(=O)[C@@H](O)[C@H](O)[C@H](O)CO)C(=O)O [compound 14, N-(1-deoxyfructos-1-yl)-D-Ile], which IC50 is on record?
A: 340 nM

Q: With “N-(1-deoxyfructos-1-yl)-Hhp-Asp [compound 10]” as the molecule, how does the IC50 read?
A: 75 nM

Q: How did the “enkephalinase-inhibitory activity of HPLC peaks” value turn out when “N-(1-deoxyfructos-1-yl)-Ile-Asp [compound 3]” was run?
A: enkephalinase-inhibitory activity

Q: What about the IC50 of the same molecule?
A: 1.8 nM

Source: patent US5302582A, “Enkastins: new glycopeptides which act to inhibit enkephlinase, processes for their preparation, and their use as pharmaceutical products” (Hoechst Aktiengesellschaft, priority 1987, dated 1994)
